One substance from US4166113A, “Cardiotonic agent” (University of Hawaii, priority 1978, dated 1979) can be followed below.

A short description of data set [1]: Solubility in deionized water. Format: physicochemical.
Data set [2] can be described thus: Stability (pH, storage). In kind it is physicochemical.
For data set [3], the system named is isolated rat atria. Nature of the data set: Bioassay for positive inotropic effect on isolated rat atria. In kind it is cell-based. An excerpt:
The sea anemones are homogenized and extracted with water or with a solution of water and a water miscible organic solvent. The crude extract, containing anthopleurin-B, is subjected to gel filtration to give a forty-fold increase in purity of anthopleurin-B. Alternatively, semipermeable membranes may be used to accomplish the results obtained by gel filtration. Cation exchange chromatography provides an excellent separation of anthopleurin-B in a purity of about 30-40% depending on the particular collection of anemones. […] To obtain analytically pure salt-free material the above material is further purified by gel filtration, cation-exchange chromatography and gel adsorption chromatography. All the separation procedures in the present invention are monitored by bioassay using the isolated rat atria for determination of positive inotropic effect using the procedure described in the section headed Bioassay.
Bioassays of the solutions containing anthopleurin-B are performed on isolated atria of rat hearts. […]
The spontaneously beating atrial preparation is connected by a thin silk thread to a force-displacement transducer (Grass Model FT.03), and the contractile movements are recorded on a six-channel polygraph Grass Model 7. […]

Data set [4] can be described thus: Isoelectric focusing. Format: physicochemical. The text has this: For the purpose of obtaining electrophoretic and amino acid analysis the anthopleurin-B obtained in Example 1, below, was rechromatographed on CM Sephadex C-25, Sephadex G-50 and G-10 according to the process set forth in Example 1, Steps c, d and e, respectively. The doubly purified material was subject to electrophoretic analysis using commercially available pre-cast 12% acrylamide gels and matched buffer systems obtained from Bio.Rad Laboratories, 32nd and Griffin, Richmond, California.
Isoelectric focusing gave the isoelectric point at a pH=9.05. Disc gel electrophoresis with 12% polyacrylamide gel at pH 3.6 gave an Rf value of 0.64 versus methyl green tracking dye. […] Sodium dodecyl sulfate (SDS) disc gel electrophoresis using a 10% gel indicated a m.w. of about 5,200 after incubation with dithioerythritol, using RNase A and pancreatic trypsin inhibitor (PTI) for comparison. The molecular weight is so low that these values are only approximate. […] Acid hydrolysis indicated the approximate following amino acid composition: (Asp or Asn)5, Thr1 Ser4, (Glu or Gln)1, Pro5, Gly7, Ala2, (Cys/2)6 Val1, Ile2, Leu2, Tyr1, Phe1, Lys3, His2, Arg2, Trp2.

Take anthopleurin-B [AP-B]: the solubility result in data set [1] is “very soluble”. Further, the storage stability entry in data set [2] (-20° C. for a year, as lyophilized fraction C or fraction G) is “no signs of deterioration”. In addition, the “stability versus pH” value in data set [2] (neutral and lower pH values) is given as “relatively stable”. The “stability of dry form” value in data set [2] (sterile powdered lyophilized, room temperature) is “stable at room temperature”. Further, the “potency in positive inotropic effect relative to ouabain” value in data set [3] (as potent as ouabain) is recorded as 200-1000 x. In addition, the chronotropic effect result in data set [3] (isolated rat atria, beat rate) is “does not show any chronotropic effect”. The same substance yielded an isoelectric point in data set [4] of 9.05 pH.
